# Legend:
# Assay type in all cases: functional
# K562 = assay: Cytotoxicity against Homo sapiens (human) K562 cells after 48 hr by sulforhodamine B assay; conditions: K562, 48 h; for CC50: read-out: LC50 (the source's name)
# SN12C = assay: Cytotoxicity against Homo sapiens (human) SN12C cells after 48 hr by sulforhodamine B assay
# OVCAR-4 = assay: Cytotoxicity against Homo sapiens (human) OVCAR4 cells after 48 hr by sulforhodamine B assay; conditions: OVCAR-4, 48 h
# A498 = assay: Cytotoxicity against Homo sapiens (human) A498 cells after 48 hr by sulforhodamine B assay; conditions: A498, 48 h
# UO-31 = assay: Cytotoxicity against Homo sapiens (human) UO31 cells after 48 hr by sulforhodamine B assay; conditions: UO-31, 48 h
# MCF7 [1] = assay: Cytotoxicity against Homo sapiens (human) MCF7 cells after 48 hr by sulforhodamine B assay; conditions: MCF7, 48 h
# SK-MEL-5 = assay: Cytotoxicity against Homo sapiens (human) SK-MEL-5 cells after 48 hr by sulforhodamine B assay; conditions: SK-MEL-5, 48 h
# HT-29 = assay: Cytotoxicity against Homo sapiens (human) HT-29 cells after 48 hr by sulforhodamine B assay; conditions: HT-29, 48 h; for CC50: read-out: LC50 (the source's name)
# NCI-H460 [2] = assay: Cytotoxicity against Homo sapiens (human) NCI-H460 cells after 48 hr by sulforhodamine B assay; conditions: NCI-H460, 48 h; for CC50: read-out: LC50 (the source's name)
# UACC-257 = assay: Cytotoxicity against Homo sapiens (human) UACC257 cells after 48 hr by sulforhodamine B assay; conditions: UACC-257, 48 h
# IGROV-1 = assay: Cytotoxicity against Homo sapiens (human) IGROV1 cells after 48 hr by sulforhodamine B assay; conditions: IGROV-1, 48 h
# NCI-H226 = assay: Cytotoxicity against Homo sapiens (human) NCI-H226 cells after 48 hr by sulforhodamine B assay; conditions: NCI-H226, 48 h; for CC50: read-out: LC50 (the source's name)
# A549 = assay: Cytotoxicity against Homo sapiens (human) A549 cells after 48 hr by sulforhodamine B assay; conditions: A549, 48 h; for CC50: read-out: LC50 (the source's name)
# U-251 = assay: Cytotoxicity against Homo sapiens (human) U251 cells after 48 hr by sulforhodamine B assay; conditions: U-251, 48 h
# [3] = Cytotoxicity against Homo sapiens (human) NCI-ADR-RES cells after 48 hr by sulforhodamine B assay
# HCT-15 = assay: Cytotoxicity against Homo sapiens (human) HCT15 cells after 48 hr by sulforhodamine B assay; conditions: HCT-15, 48 h; for CC50: read-out: LC50 (the source's name)
# TK-10 = assay: Cytotoxicity against Homo sapiens (human) TK10 cells after 48 hr by sulforhodamine B assay; conditions: TK-10, 48 h; for CC50: read-out: LC50 (the source's name)
# Hs-578T = assay: Cytotoxicity against Homo sapiens (human) Hs 578T cells after 48 hr by sulforhodamine B assay
# T47D = assay: Cytotoxicity against Homo sapiens (human) T47D cells after 48 hr by sulforhodamine B assay
# PC-3 = assay: Cytotoxicity against Homo sapiens (human) PC3 cells after 48 hr by sulforhodamine B assay; conditions: PC-3, 48 h
# NCI-H23 = assay: Cytotoxicity against Homo sapiens (human) NCI-H23 cells after 48 hr by sulforhodamine B assay; conditions: NCI-H23, 48 h; for CC50: read-out: LC50 (the source's name)
# HCC 2998 = assay: Cytotoxicity against Homo sapiens (human) HCC2998 cells after 48 hr by sulforhodamine B assay; conditions: HCC 2998, 48 h; for CC50: read-out: LC50 (the source's name)
# DU-145 = assay: Cytotoxicity against Homo sapiens (human) DU145 cells after 48 hr by sulforhodamine B assay; conditions: DU-145, 48 h
# RPMI-8226 = assay: Cytotoxicity against Homo sapiens (human) RPMI8226 cells after 48 hr by sulforhodamine B assay; conditions: RPMI-8226, 48 h
# SK-MEL-28 = assay: Cytotoxicity against Homo sapiens (human) SK-MEL-28 cells after 48 hr by sulforhodamine B assay; conditions: SK-MEL-28, 48 h
# MDA-MB-435 = assay: Cytotoxicity against Homo sapiens (human) MDA-MB-435 cells after 48 hr by sulforhodamine B assay; conditions: MDA-MB-435, 48 h
# KM12 = assay: Cytotoxicity against Homo sapiens (human) KM12 cells after 48 hr by sulforhodamine B assay; conditions: KM12, 48 h; for CC50: read-out: LC50 (the source's name)
# M14 = assay: Cytotoxicity against Homo sapiens (human) M14 cells after 48 hr by sulforhodamine B assay; conditions: M14, 48 h
# LOX IMVI = assay: Cytotoxicity against Homo sapiens (human) LOXIMVI cells after 48 hr by sulforhodamine B assay
# HOP-92 = assay: Cytotoxicity against Homo sapiens (human) HOP92 cells after 48 hr by sulforhodamine B assay; conditions: HOP-92, 48 h
# MCF7 [4] = assay: Cytotoxicity against Homo sapiens (human) MCF7 cells assessed as cell growth at 10^-4 M after 48 hr by Alamar blue assay; conditions: MCF7, 48 h, read-out: Activity
# NCI-H460 [5] = assay: Cytotoxicity against Homo sapiens (human) NCI-H460 cells assessed as cell growth at 10^-4 M after 48 hr by Alamar blue assay; conditions: NCI-H460, 48 h, read-out: Activity
# [6] = read-out: LC50 (the source's name)
structure (smiles),measurement,setting,value
ClCc1cccc(Cn2cnc3c(Cl)ncnc32)c1,GI50,K562,3.54 µM
same,TGI,K562,15.1 µM
same,CC50,K562,75.9 µM
same,GI50,SN12C,2.34 µM
same,LC50 (50% lethal concentration),SN12C,14.5 µM
same,TGI,SN12C,5.12 µM
same,GI50,OVCAR-4,2.34 µM
same,LC50 (concentration killing 50% of cells),OVCAR-4,26.3 µM
same,TGI,OVCAR-4,5.75 µM
same,GI50,A498,17.4 µM
same,"LC50 (lethal concentration, 50% cell kill)",A498,58.9 µM
same,TGI,A498,31.6 µM
same,GI50,UO-31,1.44 µM
same,LC50 (concentration causing 50% net cell kill),UO-31,89.1 µM
same,TGI,UO-31,36.3 µM
same,GI50,MCF7 [1],7.76 µM
same,LC50 (concentration killing 50% of cells),MCF7 [1],> 100 µM
same,TGI,MCF7 [1],77.6 µM
same,GI50,SK-MEL-5,2.29 µM
same,LC50,SK-MEL-5,24.6 µM
same,TGI,SK-MEL-5,6.31 µM
same,GI50,HT-29,3.23 µM
same,TGI,HT-29,> 100 µM
same,CC50,HT-29,> 100 µM
same,GI50,NCI-H460 [2],11.8 µM
same,TGI,NCI-H460 [2],36.3 µM
same,CC50,NCI-H460 [2],> 100 µM
same,GI50,UACC-257,20.4 µM
same,LC50 (concentration killing 50% of cells),UACC-257,67.6 µM
same,TGI,UACC-257,37.1 µM
same,GI50,IGROV-1,9.33 µM
same,LC50,IGROV-1,> 100 µM
same,TGI,IGROV-1,33.9 µM
same,GI50,NCI-H226,2.13 µM
same,TGI,NCI-H226,14.4 µM
same,CC50,NCI-H226,8.91 µM
same,GI50,A549,19.5 µM
same,TGI,A549,39.8 µM
same,CC50,A549,79.4 µM
same,GI50,U-251,1.82 µM
same,LC50 (concentration killing 50% of cells),U-251,6.76 µM
same,TGI,U-251,3.46 µM
same,GI50,[3],2.45 µM
same,LC50 (concentration killing 50% of cells),[3],37.1 µM
same,TGI,[3],7.58 µM
same,GI50,HCT-15,2.18 µM
same,TGI,HCT-15,4.67 µM
same,CC50,HCT-15,10 µM
same,GI50,TK-10,4.57 µM
same,TGI,TK-10,16.2 µM
same,CC50,TK-10,46.8 µM
same,GI50,Hs-578T,3.46 µM
same,LC50,Hs-578T,81.3 µM
same,TGI,Hs-578T,11.5 µM
same,GI50,T47D,3.02 µM
same,LC50,T47D,> 100 µM
same,TGI,T47D,12.3 µM
same,GI50,PC-3,4.16 µM
same,LC50 (concentration causing 50% cell kill),PC-3,67.6 µM
same,TGI,PC-3,18.2 µM
same,GI50,NCI-H23,1.9 µM
same,TGI,NCI-H23,4.07 µM
same,CC50,NCI-H23,8.71 µM
same,GI50,HCC 2998,0.4 µM
same,TGI,HCC 2998,1.73 µM
same,CC50,HCC 2998,5.49 µM
same,GI50,DU-145,11.2 µM
same,LC50,DU-145,51.3 µM
same,TGI,DU-145,24 µM
same,GI50,RPMI-8226,3.8 µM
same,TGI,RPMI-8226,16.2 µM
same,CC50,RPMI-8226; [6],87.1 µM
same,GI50,SK-MEL-28,2.23 µM
same,LC50 (concentration killing 50% of cells),SK-MEL-28,28.8 µM
same,TGI,SK-MEL-28,5.75 µM
same,GI50,MDA-MB-435,1.69 µM
same,LC50,MDA-MB-435,6.45 µM
same,TGI,MDA-MB-435,3.31 µM
same,GI50,KM12,3.46 µM
same,TGI,KM12,13.5 µM
same,CC50,KM12,3.98 µM
same,GI50,M14,1.66 µM
same,LC50,M14,6.6 µM
same,TGI,M14,3.31 µM
same,GI50,LOX IMVI,1.95 µM
same,LC50,LOX IMVI,27.5 µM
same,TGI,LOX IMVI,5.01 µM
same,GI50,HOP-92,2.45 µM
same,TGI,HOP-92,6.16 µM
same,CC50,HOP-92; [6],31.6 µM
ClCc1ccc(Cn2cnc3c(Cl)nc(Cl)nc32)cc1,GI50,K562,23.4 µM
same,TGI,K562,66.1 µM
same,CC50,K562,> 100 µM
same,GI50,SN12C,7.24 µM
same,LC50 (50% lethal concentration),SN12C,51.3 µM
same,TGI,SN12C,20.9 µM
same,GI50,OVCAR-4,4.9 µM
same,LC50 (concentration killing 50% of cells),OVCAR-4,61.7 µM
same,TGI,OVCAR-4,18.6 µM
same,GI50,A498,12 µM
same,"LC50 (lethal concentration, 50% cell kill)",A498,52.5 µM
same,TGI,A498,25.1 µM
same,GI50,UO-31,19.5 µM
same,LC50 (concentration causing 50% net cell kill),UO-31,66.1 µM
same,TGI,UO-31,35.5 µM
same,GI50,MCF7 [1],1.74 µM
same,LC50 (concentration killing 50% of cells),MCF7 [1],> 100 µM
same,TGI,MCF7 [1],3.98 µM
same,GI50,SK-MEL-5,6.46 µM
same,LC50,SK-MEL-5,44.7 µM
same,TGI,SK-MEL-5,19.1 µM
same,GI50,HT-29,2.88 µM
same,TGI,HT-29,> 100 µM
same,CC50,HT-29,> 100 µM
same,GI50,NCI-H460 [2],2.4 µM
same,TGI,NCI-H460 [2],4.9 µM
same,CC50,NCI-H460 [2],28.8 µM
same,GI50,UACC-257,16.2 µM
same,LC50 (concentration killing 50% of cells),UACC-257,69.2 µM
same,TGI,UACC-257,33.1 µM
same,GI50,IGROV-1,15.1 µM
same,LC50,IGROV-1,60.3 µM
same,TGI,IGROV-1,30.2 µM
same,GI50,NCI-H226,3.55 µM
same,TGI,NCI-H226,9.55 µM
same,CC50,NCI-H226,33.9 µM
same,GI50,A549,18.6 µM
same,TGI,A549,37.1 µM
same,CC50,A549,74.1 µM
same,GI50,U-251,2.04 µM
same,LC50 (concentration killing 50% of cells),U-251,7.41 µM
same,TGI,U-251,3.89 µM
same,GI50,[3],16.6 µM
same,LC50 (concentration killing 50% of cells),[3],> 100 µM
same,TGI,[3],> 100 µM
same,GI50,HCT-15,1.86 µM
same,TGI,HCT-15,3.8 µM
same,CC50,HCT-15,7.59 µM
same,GI50,TK-10,6.61 µM
same,TGI,TK-10,20.4 µM
same,CC50,TK-10,44.7 µM
same,GI50,Hs-578T,2.14 µM
same,LC50,Hs-578T,> 100 µM
same,TGI,Hs-578T,5.75 µM
same,GI50,T47D,1.38 µM
same,LC50,T47D,> 100 µM
same,TGI,T47D,5.5 µM
same,GI50,PC-3,2.69 µM
same,LC50 (concentration causing 50% cell kill),PC-3,45.7 µM
same,TGI,PC-3,7.24 µM
same,GI50,NCI-H23,7.59 µM
same,TGI,NCI-H23,23.4 µM
same,CC50,NCI-H23,58.9 µM
same,GI50,HCC 2998,10.2 µM
same,TGI,HCC 2998,24 µM
same,CC50,HCC 2998,56.2 µM
same,GI50,DU-145,5.62 µM
same,LC50,DU-145,42.7 µM
same,TGI,DU-145,17.8 µM
same,GI50,RPMI-8226,1.74 µM
same,TGI,RPMI-8226,3.8 µM
same,growth at 100 µM,MCF7 [4],0%
same,growth at 100 µM,NCI-H460 [5],0%
same,GI50,SK-MEL-28,2.69 µM
same,LC50 (concentration killing 50% of cells),SK-MEL-28,46.8 µM
same,TGI,SK-MEL-28,6.92 µM
same,GI50,MDA-MB-435,12.6 µM
same,LC50,MDA-MB-435,50.1 µM
same,TGI,MDA-MB-435,25.1 µM
same,GI50,KM12,1.82 µM
same,TGI,KM12,3.24 µM
same,CC50,KM12,5.75 µM
same,GI50,M14,10.7 µM
same,LC50,M14,53.7 µM
same,TGI,M14,24 µM
same,GI50,LOX IMVI,2.04 µM
same,LC50,LOX IMVI,8.32 µM
same,TGI,LOX IMVI,4.17 µM

# From ChEMBL document CHEMBL3044672, “N9- and N7-(Chloromethyl Phenymethyl)Chloropurine Derivatives from , '-Dichloroxylenes: Synthesis and Anticancer Activity” (2005)
